Reference: PubChem BioAssay (NCI)
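Following 48 hours of exposure in 96-well plates, responses at five concentrations were used to interpolate endpoints linearly. At the TGI there is no net growth.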

What was measured:
Assay in all cases: NCI tumour cell line growth inhibition, 48 h
[1] = system: A498 renal
[2] = system: A549 NSCLC
[3] = system: CCRF-CEM leukemia
[4] = system: COLO 205 colon
[5] = system: DLD-1 colon
[6] = system: DMS 114 small cell lung
[7] = system: DMS 273 small cell lung
[8] = system: EKVX NSCLC
[9] = system: HCC-2998 colon
[10] = system: HCT-116 colon
[11] = system: HCT-15 colon
[12] = system: HL-60(TB) leukemia
[13] = system: HOP-18 NSCLC
[14] = system: HOP-62 NSCLC
[15] = system: HT29 colon
[16] = system: IGROV1 ovarian
[17] = system: K-562 leukemia
[18] = system: KM12 colon
[19] = system: KM20L2 colon
[20] = system: LOX IMVI melanoma
[21] = system: M19-MEL melanoma
[22] = system: MALME-3M melanoma
[23] = system: MCF7 breast
[24] = system: MOLT-4 leukemia
[25] = system: NCI-H226 lung
[26] = system: NCI-H23 lung
[27] = system: NCI-H460 lung
[28] = system: NCI-H522 lung
[29] = system: NCI/ADR-RES ovarian
[30] = system: OVCAR-3 ovarian
[31] = system: OVCAR-4 ovarian
[32] = system: OVCAR-5 ovarian
[33] = system: OVCAR-8 ovarian
[34] = system: P388 leukemia
[35] = system: P388/ADR leukemia
[36] = system: RPMI-8226 leukemia
[37] = system: RXF 393 renal
[38] = system: SF-268 CNS
[39] = system: SF-295 CNS
[40] = system: SF-539 CNS
[41] = system: SK-MEL-2 melanoma
[42] = system: SK-MEL-28 melanoma
[43] = system: SK-MEL-5 melanoma
[44] = system: SK-OV-3 ovarian
[45] = system: SN12C renal
[46] = system: SN12K1 renal
[47] = system: SNB-19 CNS
[48] = system: SNB-75 CNS
[49] = system: SNB-78 CNS
[50] = system: SW-620 colon
[51] = system: U251 CNS
[52] = system: UACC-257 melanoma
[53] = system: UACC-62 melanoma
[54] = system: UO-31 renal
[55] = system: XF 498 CNS
[56] = system: CAKI-1 renal
[57] = system: HOP-92 NSCLC
[58] = system: 786-0 renal
[59] = system: ACHN renal
[60] = system: LXFL 529 NSCLC
[61] = system: M14 melanoma
[62] = system: RXF-631 renal
[63] = system: SR leukemia
[64] = system: TK-10 renal

## CC(C)CCCC(C)[C@H]1CCC(C2C[C@@H](O)[C@@H]3CC(O)[C@@H](O)C[C@]3(CO)C2=O)[C@]1(C)CCO (some centres undefined)
[1]
  TGI: 48.9 µM
[2]
  TGI: > 96.2 µM
[3]
  TGI: 40.9 µM
[4]
  TGI: 35 µM
[5]
  TGI: > 100 µM
[6]
  TGI: 39.7 µM
[7]
  TGI: > 68.5 µM
[8]
  TGI: > 94.9 µM
[9]
  TGI: 38.4 µM
[10]
  TGI: 38.2 µM
[11]
  TGI: > 66.8 µM
[12]
  TGI: 38.6 µM
[13]
  TGI: 47.7 µM
[14]
  TGI: 52.8 µM
[15]
  TGI: 36.3 µM
[16]
  TGI: 42.4 µM
[17]
  TGI: 61.2 µM
[18]
  TGI: 19.6 µM
[19]
  TGI: 38.5 µM
[20]
  TGI: 39.3 µM
[21]
  TGI: 39 µM
[22]
  TGI: 44.8 µM
[23]
  TGI: 20.4 µM
[24]
  TGI: 22.4 µM
[25]
  TGI: > 73.8 µM
[26]
  TGI: > 90.5 µM
[27]
  TGI: 45.2 µM
[28]
  TGI: 73.8 µM
[29]
  TGI: > 100 µM
[30]
  TGI: 47.9 µM
[31]
  TGI: > 83.8 µM
[32]
  TGI: 55.8 µM
[33]
  TGI: > 76.1 µM
[34]
  TGI: 49.5 µM
[35]
  TGI: > 88.7 µM
[36]
  TGI: > 100 µM
[37]
  TGI: 53.3 µM
[38]
  TGI: 54.1 µM
[39]
  TGI: 40 µM
[40]
  TGI: 39.6 µM
[41]
  TGI: 39.7 µM
[42]
  TGI: 40.5 µM
[43]
  TGI: 18.8 µM
[44]
  TGI: 67.1 µM
[45]
  TGI: > 74.1 µM
[46]
  TGI: 37.4 µM
[47]
  TGI: 96.3 µM
[48]
  TGI: 48.7 µM
[49]
  TGI: 85.5 µM
[50]
  TGI: 52.7 µM
[51]
  TGI: 37.7 µM
[52]
  TGI: 46.5 µM
[53]
  TGI: 34.5 µM
[54]
  TGI: 49.8 µM
[55]
  TGI: > 59.6 µM

## CC(=O)C(=Cc1cn(C)c(=O)n(C)c1=O)C(C)=O
[1]
  TGI: 290 µM
[2]
  TGI: 565 µM
[56]
  TGI: 224 µM
[3]
  TGI: 294 µM
[4]
  TGI: 189 µM
[5]
  TGI: 222 µM
[6]
  TGI: 227 µM
[7]
  TGI: 225 µM
[8]
  TGI: 323 µM
[9]
  TGI: 264 µM
[10]
  TGI: 188 µM
[11]
  TGI: 218 µM
[12]
  TGI: 271 µM
[13]
  TGI: 456 µM
[14]
  TGI: 400 µM
[57]
  TGI: 8.16 µM
[15]
  TGI: 278 µM
[16]
  TGI: 470 µM
[17]
  TGI: 465 µM
[18]
  TGI: 189 µM
[19]
  TGI: 230 µM
[20]
  TGI: 171 µM
[21]
  TGI: 273 µM
[22]
  TGI: 201 µM
[23]
  TGI: 625 µM
[24]
  TGI: 382 µM
[25]
  TGI: 293 µM
[26]
  TGI: 194 µM
[27]
  TGI: 231 µM
[28]
  TGI: 67.1 µM
[29]
  TGI: 286 µM
[30]
  TGI: 299 µM
[31]
  TGI: 273 µM
[32]
  TGI: 235 µM
[33]
  TGI: 324 µM
[34]
  TGI: 240 µM
[35]
  TGI: 392 µM
[36]
  TGI: 284 µM
[37]
  TGI: 148 µM
[38]
  TGI: 526 µM
[39]
  TGI: 254 µM
[40]
  TGI: 209 µM
[41]
  TGI: 255 µM
[42]
  TGI: 209 µM
[43]
  TGI: 176 µM
[44]
  TGI: 327 µM
[45]
  TGI: 216 µM
[46]
  TGI: 228 µM
[47]
  TGI: 414 µM
[48]
  TGI: 240 µM
[49]
  TGI: 600 µM
[50]
  TGI: 302 µM
[51]
  TGI: 223 µM
[52]
  TGI: 177 µM
[53]
  TGI: 148 µM
[54]
  TGI: 175 µM
[55]
  TGI: 78.1 µM

## C=CCC(O[Si](C)(C)C(C)(C)C)c1cc(O[Si](C)(C)C(C)(C)C)ccc1OC (centres undefined)
[1]
  TGI: > 100 µM
[2]
  TGI: > 100 µM
[56]
  TGI: > 100 µM
[3]
  TGI: > 100 µM
[4]
  TGI: > 100 µM
[5]
  TGI: > 100 µM
[6]
  TGI: > 100 µM
[7]
  TGI: > 100 µM
[8]
  TGI: > 100 µM
[9]
  TGI: > 100 µM
[10]
  TGI: > 100 µM
[11]
  TGI: > 100 µM
[12]
  TGI: > 100 µM
[13]
  TGI: > 100 µM
[14]
  TGI: > 100 µM
[57]
  TGI: 86.6 µM
[15]
  TGI: > 100 µM
[16]
  TGI: > 100 µM
[17]
  TGI: > 100 µM
[18]
  TGI: > 100 µM
[19]
  TGI: > 100 µM
[20]
  TGI: > 100 µM
[22]
  TGI: > 100 µM
[23]
  TGI: > 100 µM
[24]
  TGI: > 100 µM
[25]
  TGI: > 100 µM
[26]
  TGI: > 100 µM
[27]
  TGI: > 100 µM
[29]
  TGI: > 100 µM
[30]
  TGI: > 100 µM
[31]
  TGI: > 100 µM
[32]
  TGI: > 100 µM
[33]
  TGI: > 100 µM
[34]
  TGI: > 100 µM
[35]
  TGI: > 100 µM
[36]
  TGI: > 100 µM
[37]
  TGI: > 100 µM
[38]
  TGI: > 100 µM
[39]
  TGI: > 100 µM
[40]
  TGI: > 100 µM
[41]
  TGI: > 100 µM
[42]
  TGI: > 100 µM
[43]
  TGI: > 100 µM
[44]
  TGI: > 96.4 µM
[45]
  TGI: > 100 µM
[46]
  TGI: > 100 µM
[47]
  TGI: > 100 µM
[48]
  TGI: > 100 µM
[49]
  TGI: > 100 µM
[50]
  TGI: > 100 µM
[51]
  TGI: > 100 µM
[52]
  TGI: > 100 µM
[53]
  TGI: > 100 µM
[54]
  TGI: > 100 µM
[55]
  TGI: > 100 µM

## CC(=O)Nc1ccc(C2CC(c3ccc([N+](=O)[O-])cc3)=Nc3ccccc3S2)cc1 (centres undefined)
[58]
  TGI: 31.1 µM
[1]
  TGI: 33.3 µM
[2]
  TGI: 56 µM
[59]
  TGI: 32.1 µM
[56]
  TGI: 77.7 µM
[3]
  TGI: 56 µM
[4]
  TGI: > 100 µM
[5]
  TGI: 32.4 µM
[7]
  TGI: 71.4 µM
[8]
  TGI: > 100 µM
[10]
  TGI: 25.1 µM
[11]
  TGI: 37.2 µM
[12]
  TGI: 49.7 µM
[13]
  TGI: 78.2 µM
[14]
  TGI: 50.8 µM
[15]
  TGI: 28.7 µM
[16]
  TGI: 67.2 µM
[17]
  TGI: 42 µM
[18]
  TGI: 30.6 µM
[19]
  TGI: 47.9 µM
[20]
  TGI: 32.3 µM
[60]
  TGI: 41.7 µM
[61]
  TGI: 27.6 µM
[21]
  TGI: 45.6 µM
[22]
  TGI: 35.1 µM
[24]
  TGI: 39.6 µM
[25]
  TGI: 86.3 µM
[27]
  TGI: 34.3 µM
[30]
  TGI: 67.4 µM
[31]
  TGI: 42.2 µM
[32]
  TGI: 41.5 µM
[33]
  TGI: 35.4 µM
[37]
  TGI: 34.9 µM
[62]
  TGI: 70 µM
[38]
  TGI: 77.9 µM
[39]
  TGI: 35 µM
[40]
  TGI: 33.5 µM
[41]
  TGI: 32.9 µM
[42]
  TGI: 38.4 µM
[44]
  TGI: 87.8 µM
[45]
  TGI: 33 µM
[47]
  TGI: 62.4 µM
[48]
  TGI: > 100 µM
[49]
  TGI: > 100 µM
[63]
  TGI: 61.9 µM
[50]
  TGI: 32.3 µM
[64]
  TGI: 44.4 µM
[51]
  TGI: 29.8 µM
[52]
  TGI: 29.2 µM
[53]
  TGI: 32.1 µM
[54]
  TGI: 27.8 µM
[55]
  TGI: 27 µM
